Assays:
[1] = system: MDA-MB-231 human breast tumor with lung metastasis; details: NSG mouse
Description: The anticancer efficacy of the nanoparticles has been evaluated in a NSG mouse model bearing MDA-MB-231 human breast tumor with lung metastasis. […] A thorough characterization of lung metastasis has been performed with a combination of IVIS imaging, H&E staining, and machine learning.

[2] = Balb/c mice; compared to saline control
Protocol: In order to detect if mice experienced any behavioral changes under treatments, open field tests and pain sensitivity behavioral tests were performed.

distance traveled in open field test [2] | SMILES | lung metastasis ([1]; MDA-MB-231, IVIS imaging, H&E staining, machine learning) | primary tumor inhibition efficacy ([1]; MDA-MB-231 tumor)
– | CC(=O)O[C@H]1C(=O)[C@@]2(C)[C@H]([C@H](OC(=O)c3ccccc3)[C@]3(O)C[C@H](OC(=O)[C@H](O)[C@@H](NC(=O)c4ccccc4)c4ccccc4)C(C)=C1C3(C)C)[C@]1(OC(C)=O)CO[C@@H]1C[C@@H]2O [paclitaxel free drug, paclitaxel] | shows no therapeutic effect to metastasis, and even induce more metastasis | inhibits primary tumor
significant attenuation in the distance | COc1cccc2c1C(=O)c1c(O)c3c(c(O)c1C2=O)C[C@@](O)(C(=O)CO)C[C@@H]3O[C@H]1C[C@H](N)[C@H](O)[C@H](C)O1 [doxorubicin] | – | –

From patent publication US20250090489A1, “CATIONIC POLYMERIC NANOCARRIERS INHIBIT CHEMOTHERAPY-INDUCED CANCER METASTASIS AND COGNITIVE IMPAIRMENT” (The Trustees of Columbia University in the City of New York, priority 2022, published 2025)
